Read-outs that look alike come from different tables or passages of the source.
Columns and labels:
[1] = cited from earlier work
[2] = cited from earlier work; remark: listed apart in the source
[3] = assay type: in vitro ADME, snake
Description: In vitro transport (diffusion) was evaluated by Franz cell diffusion experiments using shed snakeskin. Shed snakeskin is widely recognized as a sufficient model membrane to human skin for preliminary permeability studies due to the similarity in its composition to the human stratum corneum.
The shed snakeskin was hydrated in 0.1% aqueous sodium azide solution for 48 hours at room temperature. The skins were mounted to three Franz receptor cells filled with 0.1 M pH7 phosphate buffer. The receptor solution was maintained at 37° C. and stirred with a magnetic stirrer. The donor cells were clamped to each receptor cell, with the skin mounted between the receptor and donor cells, and the donor cells were filled with 100 milligrams (mg) each of glucosamine HCl (e.g., cell 1), N-acetyl glucosamine (e.g., cell 2), and glucosamine pentaacetyl (e.g., cell 3) in a 1 milliliter (ml) DMSO solution. The skin surface exposed to diffusion was 2.54 cm^2 (1.8 cm diameter) and the receptor cell volume was 6 cm^3. The system was allowed to equilibrate for two hours before samples were taken.
Twenty microliter (μl) samples of receptor solution were taken at 5, 10, 20, 40, 80, 160, and 240 minute intervals and replaced with fresh buffer. A ten μl aliquot of each sample was analyzed by high performance liquid chromatography with pulsed electrochemical detection.

[4] = In-vitro membrane permeation of NAG through shed snakeskin (Franz cell; enhancers, DMSO, ethanol/buffer); assay type: in vitro ADME, snake
Description: Shed snakeskins were used as a model membrane for permeation studies using the NAG suspensions in known membrane permeation enhancers; ethanol, oleic acid, isopropyl myristate, and isopropyl palmitate; saturated solutions of NAG in water and in phosphate buffer; as well as in a saturated DMSO solution and phosphate buffer (pH 5.5) containing ethanol at 2%, 5%, 10%, 25%, and 50% solutions.
The skins were hydrated in 0.1% aqueous sodium azide solution at room temperature for 48 hrs. Franz-cell diffusions experiments were carried out. In general the receptor cell was filled with 7.4 pH 0.1 M phosphate buffer and the donor cell filled with a solution or suspension. For the phosphate buffer (pH 5.5) containing ethanol at 2%, 5%, 10%, 25%, and 50% solutions in the donor phase, the receptor phase consisted of phosphate buffer (pH 5.5, 0.1 M). The receptor solution was maintained at 37° C. and stirred with a magnetic stirrer.
The snake skins were mounted between the receptor and donor cells. The surface exposed to diffusion was 2.54 cm^2 (diameter 1.8 cm) and the receptor cell volume was 6 cm^3. The donor cell was covered with plastic film. The system was allowed to equilibrate at 37° C. for two hours before each experiment. To the donor cells, 5 ml of the NAG-enhancer suspension or solution was added. Samples were taken at intervals over a 24-hour period, 200-μl samples of receptor solutions were taken and replaced with fresh buffer; experiments were conducted in triplicate. The amounts of NAG that permeated through the snakeskin were determined by HPAE-PAD.
Steady state flux (Jss) for NAG (mg/cm^2/h) was calculated from its increasing amount in the receptor medium (Bach et al., Eur. J. Pharm. Biopharm, 46:1-13 (1998)). NAG's permeability coefficient (kp) in cm/h was calculated from known physiochemical parameters, (Hadgraft et al., “Feasibility Assessment in Topical and Transdermal Delivery: Mathematical Models and In Vitro Studies,” in Transdermal Drug Delivery. 2nd Ed. Marcel Dekker, Inc., pages 1-23 (2003)). Lag time (tlag) was determined graphically from the cumulative amount of drug released per unit area (mg/cm^2) versus time plots. A square root of time (t^1/2) versus cumulative amount of drug released per unit area (mg/cm^2) was obtained to monitor NAG in vitro release rate (mg/cm^2), (Guidance for Industry: SUPAC-SS Semisolid Dosage Forms. Scale-up and Postapproval Changes Chemistry, Manufacturing, and Control; In Vitro Release Testing and In Vivo Bioequivalence Documentation. US Department of Health and Human Services, Food and Drug Administration, Center for. Drug Evaluation and Research, May 1997).

[5] = Oil/water partition coefficient, n-hexane/phosphate buffer; assay type: physicochemical; conditions: 37° C., 24 hours
Description: The oil/water partition coefficient for NAG was determined using n-hexane/phosphate buffer (pH 5.5 6, 6.73, and 7.4, 0.1 M) and n-hexane/water (Bemacki et al., J. Supramolecular Structure, 7:235-250 (1977)). In each case 5 ml of n-hexane was mixed with aqueous solutions containing NAG and shaken at 37° C. for 24 hours. The mixture was afterwards centrifuged and the organic and aqueous phases separated. The NAG concentration in the filtrates was determined by HPAE-PAD after the appropriate dilution.

[6] = cited from earlier work; remark: listed apart in the source
[7] = Solubility measurements of NAG; assay type: physicochemical
Description: The solutions were centrifuged for 5 min at 9000 rev/min and the supernatant filtered with cellulose acetate membrane filters (0.45 μm pore size) (Dionex, Sunnyvale Calif.). The NAG concentration in each filtrate was determined by HPAE-PAD after the appropriate dilution.

[8] = In-vitro membrane permeation of NAG from lecithin suspensions and pluronic organo-gel formulations across shed snakeskin; assay type: in vitro ADME, snake
Description: Twenty percent poloxamer 407 (PLURONIC F127; Polyethylene-Polypropylene Glycol) gels were made by standard methods e.g. dissolving the poloxamer into cold water under refrigeration for 24 hours to produce the pluronic gel phase. NAG was incorporated into the pluronic gel phase. The final formulations were prepared via the emulsification of the select organic phase with the pluronic gel phase using luer-lock connected syringes.
Shed snakeskins were used as the model membrane for these permeation studies using the NAG semi-solid gel formulations. The skins were hydrated in 0.1% aqueous sodium azide solution at room temperature for 48 hrs. Franz-cell diffusions experiments were carried out. In general the receptor cell was filled with a 7.4 pH 0.1 M phosphate buffer. The receptor solution was maintained at 37° C. and stirred with a magnetic stirrer. The snakeskins were mounted between the receptor and donor cells. The surface exposed to diffusion was 2.54 cm^2 (diameter 1.8 cm) and the receptor cell volume was 6 cm^3. The donor cell was covered with plastic film. The system was allowed to equilibrate at 37° C. for two hours before each experiment. The donor cells were filled with a 5 ml of the semisolid NAG pluronic-organo-gel formulation. Samples (N=3) were taken at intervals over a 48-hour period, 200-μl samples of receptor solutions were taken and replaced with fresh buffer; experiments were conducted in triplicate. The amounts of NAG that permeated through the snakeskin were determined by HPAE-PAD.
Steady state flux (Jss) for NAG (mg/cm^2/h) was calculated from its increasing amount in the receptor medium (Bach et al., Eur. J. Pharm. and Biopharm., 46:1-13 (1998)). NAG's permeability coefficient (kp) in cm/h was calculated from known physiochemical parameters (Hadgraft et al., “Feasibility Assessment in Topical and Transdermal Delivery: Mathematical Models and In Vitro Studies,” in Transdermal Drug Delivery, 2nd Ed. Marcel Dekker, Inc., pages 1-23 (2003)). Lag time (tlag) was determined graphically from the cumulative amount of drug released per unit area (mg/cm^2) versus time (h) plots. A square root of time (t^1/2) versus cumulative amount of drug released per unit area (mg/cm^2) was obtained to monitor NAG in vitro release rate (mg/cm^2) (Guidance for Industry: SUPAC-SS Semisolid Dosage Forms. Scale-up and Postapproval Changes Chemistry, Manufacturing, and Control; In Vitro Release Testing and In Vivo Bioequivalence Documentation. US Department of Health and Human Services, Food and Drug Administration, May 1997).

[9] = literature; cited from earlier work
[10] = phosphate buffer (pH 5.5) with 2% ethanol
[11] = phosphate buffer (pH 5.5) with 5% ethanol
[12] = phosphate buffer (pH 5.5) with 10% ethanol
[13] = phosphate buffer (pH 5.5) with 25% ethanol
[14] = phosphate buffer (pH 5.5) with 50% ethanol
[15] = saturated DMSO donor, pH 7.4 phosphate buffer receptor
[16] = lecithin-vitamin E (1:1) suspension

## N[C@H]1C(O)O[C@H](CO)[C@@H](O)[C@@H]1O (stereo partly shown) [glucosamine]
[1]; oral administration
  bioavailability: 12-13%
[1]; oral dose
  oral dose absorbed and excreted: approximately 87%
  oral dose reaching osteoarthritic joints: < 1%
  oral dose widely distributed in the body: < 13%

## CN1CC[C@]23c4c5ccc(O)c4O[C@H]2C(=O)CC[C@@]3(O)[C@H]1C5 [oxymorphone]
[2]; pH 7.4
  octanol-water partition coefficient: 0.0

## Cl.N[C@H]1C(O)O[C@H](CO)[C@@H](O)[C@@H]1O (stereo partly shown) [glucosamine HCl, Glucosamine HCl, reference compound]
[3]
  transport across shed snake skin: not transported

## CC(=O)N[C@H]1C(O)O[C@H](CO)[C@@H](O)[C@@H]1O (stereo partly drawn) [NAG, N-acetyl-D-glucosamine]
[4]; ethanol, oleic acid, isopropyl myristate and isopropyl palmitate suspensions
  NAG transport from suspensions of membrane permeability enhancers: Negligible
[4]; [10]
  In Vitro release rate: 286.03 μg/cm^2
  Jss: 112.61 mg/cm^2/h
[4]; [11]
  In Vitro release rate: 303.61 μg/cm^2
  Jss: 119.53 mg/cm^2/h
[4]; [12]
  In Vitro release rate: 537.49 μg/cm^2
  Jss: 211.61 mg/cm^2/h
[4]; [13]
  In Vitro release rate: 523.06 μg/cm^2
  Jss: 205.93 mg/cm^2/h
[4]; [14]
  In Vitro release rate: 198.02 μg/cm^2
  Jss: 77.96 mg/cm^2/h
[4]; [15]
  In Vitro release rate: 186.64 mg/cm^2
  Jss: 73.48 mg/cm^2/h
[4]; saturated DMSO solution
  lag time: no lag time
[4]; saturated DMSO solution, FIG. 13
  in vitro release rate: 73.48 μg/cm^2
[4]; snake, calculated from known physiochemical parameters, read-out: permeability coefficient kp (converted)
  Papp: 203 ×10⁻⁶ cm/s
[4]; water or phosphate buffer solutions (pH 5.5, 6.0, 6.73, and 7.4; 0.1 M)
  permeation from aqueous solutions: No permeation
[5]
  partition coefficient n-hexane/pH 5.5 buffer: 0.252
  partition coefficient n-hexane/pH 6.0 buffer: 0.194
  partition coefficient n-hexane/pH 6.73 buffer: 0.092
  partition coefficient n-hexane/pH 7.4 buffer: 0.091
[2]; pH 7.4
  octanol-water partition coefficient: 0.017
[6]
  pKa: 6.73
[3]
  transport across shed snake skin: highly transported
[3]; snake, 100 mg/ml, pH 7
  transport (receptor cell volume analyzed): over 50%
[7]; ethanol
  solubility: insignificantly soluble
[7]; phosphate buffer
  solubility: highly soluble
[8]; experiments not reported here
  transport in aqueous only vehicles: not transported
[8]; lecithin-isopropyl palmitate and vitamin E suspensions (100 mg/ml)
  NAG transport from suspensions: Negligible (below the limit of detection)
[8]; [16]
  Release rate: 13.71 μg/cm^2
  steady state flux Jss: 4.23 μg/cm^2/h
[8]; snake, pH 7.4, lecithin-vitamin E (1:1) suspension, read-out: permeability coefficient kp (converted)
  Papp: 1.39 ×10⁻⁶ cm/s

## CC(C)Cc1ccc(C(C)C(=O)O)cc1 (stereo not shown) [ibuprofen]
[9]
  transport across shed snake skin: transported

## CCC(NC(C)C)C(O)c1ccc(O)c2[nH]c(=O)ccc12 (stereo not shown) [procaterol]
[2]; pH 7.7
  octanol-water partition coefficient: −0.37
